According to ChEMBL document CHEMBL1131664, “Design and synthesis of potent and selective 5,6-fused heterocyclic thrombin inhibitors” (Bioorg Med Chem Lett, 1999):

Key:
Prothrombin = Prothrombin (Homo sapiens, UniProt P00734); experiment: Inhibition of Coagulation factor II
[1] = Inhibition of factor Xa
Serine protease 1 = Serine protease 1 (Homo sapiens, UniProt P07477); experiment: Inhibitory activity against trypsin
Rattus norvegicus = experiment: Effect on thrombus weight in rat vena cava thrombosis model (iv administration); type: functional

Chain of Serine protease 1 (P07477 whole entry): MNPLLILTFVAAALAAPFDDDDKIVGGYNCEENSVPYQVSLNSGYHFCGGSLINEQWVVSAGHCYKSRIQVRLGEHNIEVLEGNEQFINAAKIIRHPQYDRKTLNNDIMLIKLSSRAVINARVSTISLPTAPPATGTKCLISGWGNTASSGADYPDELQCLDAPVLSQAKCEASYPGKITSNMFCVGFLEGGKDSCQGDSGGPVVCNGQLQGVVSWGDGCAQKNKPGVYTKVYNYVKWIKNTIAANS

| Structure (SMILES) | Ki (Prothrombin) [nM] | Ki [1] [nM] | Ki (Serine protease 1) [nM] | ID50 (Rattus norvegicus) [mg/kg/h] |
| --- | --- | --- | --- | --- |
| N=C(N)c1ccc2c(ccn2CC(=O)N2CCC(Cc3ccccc3F)CC2)c1 | 24 | 23000 | – | – |
| COC(=O)/C=C/c1cn(CC(=O)N2CCC(Cc3ccccc3)CC2)c2ccc(C(=N)N)cc12 | 28 | 1200 | 280 | – |
| N=C(N)c1ccc2c(ccn2CC(=O)N2CCC(Cc3ccccc3)CC2)c1 | 18 | 10300 | > 15000 | 0.8 |
| N=C(N)c1ccc2c(c1)c(CCO)cn2CC(=O)N1CCC(Cc2ccccc2)CC1 | 7 | 2400 | 310 | – |
| N=C(N)c1ccc2c(ccn2CC(=O)N2CCC(Cc3cccc(F)c3)CC2)c1 | 24 | 11000 | – | – |
| COC(=O)Cc1cn(CC(=O)N2CCC(Cc3ccccc3)CC2)c2ccc(C(=N)N)cc12 | 7.4 | 400 | 140 | – |
| CC(=O)N[C@H](Cc1ccccc1)C(=O)N1CCC[C@H]1C(=O)N[C@@H](CCCN=C(N)N)B(O)O | – | – | 9 | 0.04 |
| N=C(N)c1ccc2c(cnn2CC(=O)N2CCC(Cc3ccccc3)CC2)c1 | 140 | 2900 | > 6000 | – |
| N=C(N)c1ccc2c(ccn2CC(=O)N2CCC(C(=O)c3ccccc3)CC2)c1 | > 21000 | 9500 | > 15000 | – |

More lines, main results first:

| Ki (Prothrombin) [nM] | Ki [1] [nM] | Ki (Serine protease 1) [nM] | Structure (SMILES) | ID50 (Rattus norvegicus) [mg/kg/h] |
| --- | --- | --- | --- | --- |
| 300 | 25000 | – | N=C(N)c1ccc2c(c1)ncn2CC(=O)N1CCC(Cc2ccccc2)CC1 | – |
| 210 | 3300 | 1200 | N=C(N)c1c[nH]c2cc(S(=O)(=O)N3CCC(Cc4ccccc4)CC3)ccc12 | – |
| 19 | 3000 | – | N=C(N)c1ccc2c(c1)c(CC(=O)O)cn2CC(=O)N1CCC(Cc2ccccc2)CC1 | – |
| > 21000 | 16000 | > 15000 | N=C(N)c1ccc2c(ccn2CC(=O)N2CCC(C(O)c3ccccc3)CC2)c1 (stereo not given) | – |
